According to the NIST ThermoML archive (doi:10.1016/j.jct.2005.10.002):

Settings: Liquid

CCC(O)(CC)CC [3-ethyl-3-pentanol]
speed of sound [m/s]
Settings | 303.15 K | 313.15 K | 323.15 K | 333.15 K | 343.15 K | 353.15 K | 363.15 K | 373.15 K
100 kPa | 1269.7 | 1229.3 | 1189.8 | 1152.4 | 1113 | 1073.7 | 1034.6 | 994.7
10000 kPa | 1326.5 | 1289.3 | 1255.2 | 1217.3 | 1180.3 | 1144 | 1107.3 | 1072
20000 kPa | 1379.5 | 1346 | 1311.9 | 1277.4 | 1241.1 | 1207.5 | 1172.7 | 1139.6
30000 kPa | 1429.1 | 1393.8 | 1364.3 | 1330.3 | 1297.2 | 1264.4 | 1232.5 | 1200.6
40000 kPa | 1474.3 | 1440.8 | 1412.8 | 1379.9 | 1349.5 | 1317.4 | 1286.4 | 1256.3
50000 kPa | 1515.9 | 1484.5 | 1459 | 1426.5 | 1396 | 1366 | 1336.4 | 1307.4
60000 kPa | 1556.7 | 1526 | 1500.7 | 1470.6 | 1441.1 | 1411.1 | 1383.4 | 1354.2
70000 kPa | 1594.7 | 1564.6 | 1541 | 1511 | 1482.7 | 1454.8 | 1427.4 | 1400
80000 kPa | 1632.3 | 1602.2 | 1580.4 | 1550.1 | 1522 | 1494.6 | 1467.9 | 1440.9
90000 kPa | 1667.3 | 1638.3 | 1616.9 | 1587.4 | 1560.4 | 1533.6 | 1507.1 | 1481.4
100000 kPa | 1700.2 | 1672.4 | 1651.3 | 1622.8 | 1596.4 | 1570.4 | 1544.3 | 1519.4
